Patent publication US20210260069A1, “IRE1a INHIBITOR IN COMBINATION WITH CANCER [sequence] AGENT FOR CANCER TREATMENT” (Fosun Orinove PharmaTech, Inc., priority 2018, published 2021)

Legend:
XBP1s = assay: Determination of XBP1s level induced by various compounds (RT-qPCR splicing assay), several cell lines; type: cell-based, human; conditions: for ER stress measured by XBP1s level (FIG. 6): Hep G2, MCF-7 and RPMI 8226 cells, 1, 2 or 4 hours; for induction of XBP1s: in a time, cell or concentration dependent manner
Protocol: (§1) This method applies to any mammalian cell line but was typically applied to human MM1s myeloma cells for EC50 and RPMI 8826 plasmacytoma cells for confirmation of selected compounds. Briefly, cells were grown in standard conditions and spread into 96 well tissue culture plates. Cells were treated with compounds with indicated concentration using serial dilutions. DTT (dithiothreitol) or compounds were added at the same time and cells were harvested after indicated hour's treatment. Cells treated with DTT alone were used as 100% XBP1s positive controls and cell left untreated were used as base line XBP1s level.
(§2) Splicing Assay: Total RNA was isolated from cells treated with compounds using Applied Biosystems RNAqueous kit. 1 μg of total RNA was reverse transcribed using Oligo dt (12-18) (Invitrogen). The cDNA was then amplified at 95° C. for 8 min and 30 sec, then 40 cycles at 95° C. for 15 sec and 63° C. for 1 min. Samples were run against a purified standard curve for both spliced and unspliced XBP1, and further normalized to internal house-keeping gene GAPDH.

RPMI 8226 cells = assay: XBP1s level induced in RPMI 8226 cells; type: cell-based, human
Protocol: as §1, with “Briefly,” for “This method applies to any mammalian cell line but was typically applied to human MM1s myeloma cells for EC50 and RPMI 8826 plasmacytoma cells for confirmation of selected compounds. Briefly,”
as §2
(§3) The same methods were used as above for Lestaurtinib.

A549 cells = assay: XBP1s level induced in A549 cells; type: cell-based, human
Protocol: as §1, with “Briefly,” for “This method applies to any mammalian cell line but was typically applied to human MM1s myeloma cells for EC50 and RPMI 8826 plasmacytoma cells for confirmation of selected compounds. Briefly,”
as §2, §3

Hep3B-Luc cells = assay: Orthotopic Hep3B-luc human liver xenograft model (Example 22); type: in vivo, female BALB/c nude mice
Protocol: The tumor was inoculated by injecting Hep3B-Luc cells (established by WuXi AppTec R&D center) mixed with BD Matrigel in 20 μl (PBS:Matrigel=1:1) into the left lobe of the liver. […] Sorafenib was formulated with Cremophor® EL/ethanol (1:1) and purified water to form a solution of 9 mg/ml. […] Tumor weight was measured at the termination of study. T/Cweight value (in percent) was calculated using the formula: T/Cweight%=Tweight/Cweight×100%, while Tweight and Cweight were the mean tumor weights of the treated and the vehicle control groups, respectively.

human liver HUH-7 cells = assay: Subcutaneous HUH-7 liver cancer xenograft model, survival (Example 23); type: in vivo, Female BALB/c nude mice
Protocol: Female BALB/c nude mice were subcutaneously inoculated with human liver HUH-7 cells (from JCRB) to establish a xenograft model of liver cancer. The scheduled administration cycle was 28 days. Animals were assigned into 4 groups (n=10/group): one vehicle group, two single treatment groups (Orin 1001 administered at 80 mg/kg/day q.d. for 28 days; Sorafenib administered following a dose regimen of 18.25 mg/kg/day q.d. for 5 days, then 25 mg/kg/day q.d. for 3 days, and then 45 mg/kg/day q.d. for 20 days, consecutively) and one combination treatment group (sorafenib administered following a dose regimen of 18.25 mg/kg/day q.d. for 5 days, then 25 mg/kg/day q.d. for 3 days, and then 45 mg/kg/day q.d. for 20 days, consecutively, whilst combined with Orin 1001 administered q.d. at a dose of 80 mg/kg/day for 28 days). All vehicle or administration treatments were given via oral gavage. Sorafenib was formulated with Kolliphor® EL/ethanol (2/1, v/v) and water. Orin 1001 was dissolved with cellulose microcrystalline and sucrose in purified water to form as suspension. The mice were euthanized if a tumor volume achieved over 2000 mm^3. Otherwise the experiment ended on the 6th day after the last administration.

RPMI 8226 tumor cells = assay: Intratumoral XBP-1 spliced effect in Velcade treated RPMI xenografts; type: in vivo, Nude mice; conditions: Velcade 0.8 mg/kg IV on day 21 and day 24, RPMI 8226 xenograft
Protocol: The mice were treated again on the 24th day with Velcade®. On Day 27, the mice were treated with Orin 1001 at 30 mg/kg PO, four hours later the mice were sacrificed as in Example 25, and tumor tissues were isolated. In a similar way as described for the liver PD test in Example 25, RNA extraction and RT-PCR analysis gave the results as shown FIG. 13.
BALB/c mice were injected intraperitoneally with 100 microliters at an equivalent dose of 1 mg/kg tunicamycin solution. Two hours after tunicamycin injection, mice were dosed with compound of interest either PO or IV. Following 2 hours for PO delivery of compound, mice were euthanized according to IACUC protocols using CO2 from a […] source. A 1 cm^3 fragment of the liver for homogenization and extraction of the RNA were collected for further analysis. Total RNA is harvested from cells or tissue using TRIzol according to the manufacturer's procedures. After ethanol precipitation and resuspension of the RNA, RiboGreen (Invitrogen) is used to quantify the yield and normalize the RNA concentration in the source tube containing isolated RNA. RT-PCR is performed by Oligo(dT) priming, and SuperScript II (Invitrogen) transcription using the Amplitaq Gold Kit (Applied Biosystems) according to the manufacturer's protocols. […]

[1] = test system: human breast adenocarcinoma MDA-MB231 tumor cells; type: in vivo; conditions: Orin 1001 300 mg/kg where given; paclitaxel 10 mg/kg iv weekly; n=10/group
Protocol: Orin 1001 was administered by oral gavage in combination with paclitaxel in a xenograft mouse model using female NCr nu/nu mice (n=10 in each group) injected subcutaneously with human breast adenocarcinoma MDA-MB231 tumor cells. To evaluate the effect of Orin 1001 in combination with paclitaxel, Orin 1001 was administered via oral gavage at 75, 150 or 300 mg/kg/day in combination with paclitaxel at 10 mg/kg iv, weekly (n=10/group) for up to 60 days.

[2] = test system: human ovarian carcinoma A2780 tumor cells; assay: A2780 ovarian carcinoma xenograft (Example 18); type: in vivo, female NCr nu/nu mice; conditions: Orin 1001 300 mg/kg/day oral 28 days; paclitaxel 15 mg/kg iv weekly; endpoint 2000 mm^3 or Day 60
Protocol: (§4) Orin 1001 was administered by oral gavage in a xenograft mouse model using female NCr nu/nu mice injected subcutaneously with human ovarian carcinoma A2780 tumor cells. Animals were assigned to 4 groups (n=6/group); Vehicle control administered by oral gavage for 28 days, Orin 1001 administered via oral gavage at 300 mg/kg/day for 28 consecutive days, paclitaxel administered weekly by iv at 15 mg/kg, or Orin 1001 administered in combination with paclitaxel.
The percent tumor growth delay was calculated using the following equation: TGD (%)=[T-C/C]×100, where T-C is the difference in time to tumor endpoint from Treated (T) and Control (C).

[3] = test system: human glioblastoma U-87 MG tumor cells; assay: U-87 MG glioblastoma xenograft (Example 19); type: in vivo, female NCr nu/nu mice
Protocol: as §4, with “glioblastoma U-87 MG” for “ovarian carcinoma A2780”, “cells, a glioblastoma multiforme (GBM) cell line.” for “cells.”
The percent tumor growth delay was calculated using the following equation: TGD (%)=[T-C/C]×100; where T-C is the difference in time to tumor endpoint from Treated (T) and Control (C).
The time to tumor endpoint (TTE) for each animal was further calculated using the following equation: TTE (days)=log 10 (endpoint volume, mm^3)-b/m, where b is the intercept and m is the slope of the line obtained by linear regression of the log-transformed tumor growth data set.

HT-29 cells = assay: XBP1s level induced in HT-29 cells; type: cell-based, human
Protocol: as §1, §2, §3

MCF-7 cells = assay: XBP1s level induced in MCF-7 cells; type: cell-based, human
Protocol: as §1, §2, §3

Hepatoma cells = assay: XBP1s level induced in Hepatoma (Hep G2) cells; type: cell-based, human
Protocol: as §1, §2

MM1s cells = assay: XBP1s level induced in MM1s cells; type: cell-based, human
Protocol: as §1, §2, §3

[4] = Orin 1001 300 mg/kg/day oral 28 days, paclitaxel 15 mg/kg iv weekly, endpoint 2000 mm^3 or Day 60

SMILES: Clc1ccc(Nc2nnc(Cc3ccncc3)c3ccccc23)cc1 [Vatalinib]
- ER stress measured by XBP1s level (FIG. 6) (XBP1s): enhanced
- induction of XBP1s (XBP1s): able to induce XBP1s

SMILES: Nc1ccn([C@@H]2O[C@H](CO)[C@@H](O)C2(F)F)c(=O)n1 [Gemcitabine]
- induction of XBP1s (XBP1s): able to induce XBP1s
- levels of XBP1s (RPMI 8226 cells; 1 hour of treatment): low levels
- levels of XBP1s (RPMI 8226 cells; 2 hours of treatment): low levels
- levels of XBP1s (RPMI 8226 cells; 4 hours of treatment): high levels

SMILES: CNC(=O)c1cc(Oc2ccc(NC(=O)Nc3ccc(Cl)c(C(F)(F)F)c3)cc2)ccn1 [Sorafenib]
- induction of XBP1s (XBP1s): able to induce XBP1s
- levels of XBP1s (A549 cells; 1 hour of treatment): highest levels
- levels of XBP1s (A549 cells; 2 hours of treatment): highest levels
- levels of XBP1s (A549 cells; 4 hours of treatment): modest levels
- T/Cweight (%) (Hep3B-Luc cells; mean tumor weight treated / vehicle control, day 28): 19%
- Tumor Weight (g) at day 28 (Hep3B-Luc cells; oral gavage 28 consecutive days, Orin 1001 80 mg/kg/day, sorafenib 45 mg/kg/day): 0.91 ± 0.29 g
- Median Survival Time (MST) (human liver HUH-7 cells; Orin 1001 80 mg/kg/day q.d. 28 days, sorafenib 18.25/25/45 mg/kg, Kaplan-Meier): 24 days
- ILS (%) (increase of life span) (human liver HUH-7 cells; versus vehicle group (group 1)): 20%

SMILES: CC(C)C[C@H](NC(=O)[C@H](Cc1ccccc1)NC(=O)c1cnccn1)B(O)O [Velcade®, [(1R)-3-methyl-1-[[(2S)-1-oxo-3-phenyl-2-[(pyrazinylcarbonyl)amino]propyl]amino]butyl] boronic acid]
- level of XBP1s in tumor (RPMI 8226 tumor cells): increased the level of XBP1s

SMILES: CC(=O)O[C@H]1C(=O)[C@@]2(C)[C@H]([C@H](OC(=O)c3ccccc3)[C@]3(O)C[C@H](OC(=O)[C@H](O)[C@@H](NC(=O)c4ccccc4)c4ccccc4)C(C)=C1C3(C)C)[C@]1(OC(C)=O)CO[C@@H]1C[C@@H]2O [Paclitaxel]
- induction of XBP1s (XBP1s): able to induce XBP1s
- levels of XBP1s (RPMI 8226 cells; 1 hour of treatment): high levels
- levels of XBP1s (RPMI 8226 cells; 2 hours of treatment): modest levels
- levels of XBP1s (RPMI 8226 cells; 4 hours of treatment): modest levels
- partial regressions [1]: 1
- percent tumor growth delay (TGD) [2]: 40%
- percent tumor growth delay (TGD) [3, 4]: 17%
- time to tumor endpoint (TTE) [3, 4]: 30.2 days
- tumor delay effect over the control ([3]; each agent alone): not very significant

SMILES: CO[C@H]1C[C@@H]2CC[C@@H](C)[C@@](O)(O2)C(=O)C(=O)N2CCCC[C@H]2C(=O)O[C@H]([C@H](C)C[C@@H]2CC[C@@H](OC(=O)C(C)(CO)CO)[C@H](OC)C2)CC(=O)[C@H](C)/C=C(\C)[C@@H](O)[C@@H](OC)C(=O)[C@H](C)C[C@H](C)/C=C/C=C/C=C/1C [Torisel®, Temsirolimus]
- ER stress measured by XBP1s level (FIG. 6) (XBP1s): enhanced
- induction of XBP1s (XBP1s): able to induce XBP1s
- levels of XBP1s (A549 cells; 1 hour of treatment): high levels
- levels of XBP1s (A549 cells; 2 hours of treatment): modest levels
- levels of XBP1s (A549 cells; 4 hours of treatment): high levels

SMILES: O=C(CCCCCCC(=O)Nc1ccccc1)NO [Vorinostat]
- induction of XBP1s (XBP1s): able to induce XBP1s
- levels of XBP1s (HT-29 cells; 1 hour of treatment): high levels
- levels of XBP1s (HT-29 cells; 2 hours of treatment): little
- levels of XBP1s (HT-29 cells; 4 hours of treatment): little

SMILES: COc1cc2ncnc(Nc3ccc(F)c(Cl)c3)c2cc1OCCCN1CCOCC1 [Gefitinib]
- induction of XBP1s (XBP1s): able to induce XBP1s
- levels of XBP1s (A549 cells; 1 hour of treatment): increasing
- levels of XBP1s (A549 cells; 2 hours of treatment): highest levels

SMILES: C=CCNC1=C2C[C@@H](C)C[C@H](OC)[C@H](O)[C@@H](C)/C=C(\C)[C@H](OC(N)=O)[C@@H](OC)/C=C\C=C(/C)C(=O)NC(=CC1=O)C2=O [17-AAG]
- induction of XBP1s (XBP1s): able to induce XBP1s
- levels of XBP1s (MCF-7 cells; 1 hour of treatment): high levels
- levels of XBP1s (MCF-7 cells; 2 hours of treatment): modest levels
- levels of XBP1s (MCF-7 cells; 4 hours of treatment): low levels
- levels of XBP1s (Hepatoma cells; 1 hour of treatment): high levels
- levels of XBP1s (Hepatoma cells; 2 hours of treatment): modest levels
- levels of XBP1s (Hepatoma cells; 4 hours of treatment): low levels

SMILES: Cc1cn(-c2cc(NC(=O)c3ccc(C)c(Nc4nccc(-c5cccnc5)n4)c3)cc(C(F)(F)F)c2)cn1 [Nilotinib]
- induction of XBP1s (XBP1s): able to induce XBP1s
- XBP1s induced (MM1s cells; 1 hour of treatment): modest amounts
- XBP1s induced (MM1s cells; 2 hours of treatment): greater than 50%
- XBP1s induced (MM1s cells; 4 hours of treatment): modest amounts
